Literature values, collected in patent US9125860B2, “Phosphate free oral care compositions based on magnolia antibacterial agent” (Colgate-Palmolive Company, priority 2010, dated 2015).

tested on: S. mutans, F. nucleatum, V. parvula, A. naslundii, P. gingivitis; details: representative oral bacteria; values not given

Row | Compound | bactericidal properties in MIC test, in words
1 | CCCCc1ccc(O)c(-c2cc(CCCC)ccc2O)c1 [butylmagnolol] | demonstrated bactericidal properties
2 | C=CCc1ccc(O)c(-c2ccc(O)c(CC=C)c2)c1 [honokiol] | demonstrated bactericidal properties
3 | CC(C)c1ccc(O)c(-c2cc(C(C)C)ccc2O)c1 [isopropylmagnolol] | demonstrated bactericidal properties
4 | C=CCc1ccc(O)c(-c2cc(CC=C)ccc2O)c1 [magnolol] | demonstrated bactericidal properties
5 | CCCc1ccc(O)c(-c2ccc(O)c(CCC)c2)c1 [tetrahydrohonokiol] | demonstrated bactericidal properties
6 | CCCc1ccc(O)c(-c2cc(CCC)ccc2O)c1 [tetrahydromagnolol] | demonstrated bactericidal properties
7 | butylhonokiol | demonstrated bactericidal properties
8 | isopropylhonokiol | demonstrated bactericidal properties
9 | propylhonokiol | demonstrated bactericidal properties
10 | propylmagnolol | demonstrated bactericidal properties
